PubChem BioAssay AID2060906 (Molecular Pharmacology Branch, DTP, NCI, 2025)

System: 485176-168-R4-J1-PDC complex spheroid growth
Test: Anticancer human tumor 485176-168-R4-J1-PDC patient-derived pancreatic adenocarcinoma cell line growth inhibition [RAS]
Details: for IC50: curve of first compound; for viability, T/C: stronger effect = lower value
Procedure, shortened: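 Agents were tested in combination matrices in half-log decrements from a top concentration at or near clinical Cmax (10 microM if undetermined). Targets were multi-cell spheroids of tumour lines plus HUVEC and MSC stromal cells.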
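Note: spheroids exposed to compounds for seven days before readout.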
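Throughout, for viability, T/C: luminescence viability expressed relative to DMSO vehicle wells set as 100%.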

NC1c2ccccc2OC12CCN(c1cnc3c(N4CCCc5ncccc54)n[nH]c3n1)CC2 (configuration not stated) + C#Cc1c(F)ccc2cc(O)cc(-c3ncc4c(N5CC6CCC(C5)N6)nc(OCC56CCCN5CC(F)C6)nc4c3F)c12
IC50 (second compound 0.0316 µM): > 10 µM | IC50 (second compound 0.1 µM): > 10 µM | IC50 (second compound 0.316 µM): > 10 µM | IC50 (second compound 1 µM): > 10 µM | IC50 (second compound 3.16 µM): > 10 µM | IC50 (second compound 10 µM): > 10 µM | viability, T/C (second compound 0.0316 µM, first compound 0.0316 µM): 77% | viability, T/C (second compound 0.0316 µM, first compound 0.1 µM): 79.1% | viability, T/C (second compound 0.0316 µM, first compound 0.316 µM): 78.5% | viability, T/C (second compound 0.0316 µM, first compound 1 µM): 77.6% | viability, T/C (second compound 0.0316 µM, first compound 3.16 µM): 75.3% | viability, T/C (second compound 0.0316 µM, first compound 10 µM): 62.4% | viability, T/C (second compound 0.1 µM, first compound 0.0316 µM): 83% | viability, T/C (second compound 0.1 µM, first compound 0.1 µM): 82.9% | viability, T/C (second compound 0.1 µM, first compound 0.316 µM): 78.7% | viability, T/C (second compound 0.1 µM, first compound 1 µM): 76.2% | viability, T/C (second compound 0.1 µM, first compound 3.16 µM): 90.1% | viability, T/C (second compound 0.1 µM, first compound 10 µM): 62.5% | viability, T/C (second compound 0.316 µM, first compound 0.0316 µM): 78.4% | viability, T/C (second compound 0.316 µM, first compound 0.1 µM): 82.8% | viability, T/C (second compound 0.316 µM, first compound 0.316 µM): 73.9% | viability, T/C (second compound 0.316 µM, first compound 1 µM): 72.6% | viability, T/C (second compound 0.316 µM, first compound 3.16 µM): 79.3% | viability, T/C (second compound 0.316 µM, first compound 10 µM): 58.8% | viability, T/C (second compound 1 µM, first compound 0.0316 µM): 78.6% | viability, T/C (second compound 1 µM, first compound 0.1 µM): 74% | viability, T/C (second compound 1 µM, first compound 0.316 µM): 85.5% | viability, T/C (second compound 1 µM, first compound 1 µM): 80.6% | viability, T/C (second compound 1 µM, first compound 3.16 µM): 87.8% | viability, T/C (second compound 1 µM, first compound 10 µM): 70% | viability, T/C (second compound 3.16 µM, first compound 0.0316 µM): 79.8% | viability, T/C (second compound 3.16 µM, first compound 0.1 µM): 68.9% | viability, T/C (second compound 3.16 µM, first compound 0.316 µM): 64.5% | viability, T/C (second compound 3.16 µM, first compound 1 µM): 82.8% | viability, T/C (second compound 3.16 µM, first compound 3.16 µM): 80.5% | viability, T/C (second compound 3.16 µM, first compound 10 µM): 61.3% | viability, T/C (second compound 10 µM, first compound 0.0316 µM): 91.4% | viability, T/C (second compound 10 µM, first compound 0.1 µM): 79.2% | viability, T/C (second compound 10 µM, first compound 0.316 µM): 68.8% | viability, T/C (second compound 10 µM, first compound 1 µM): 67.2% | viability, T/C (second compound 10 µM, first compound 3.16 µM): 91.1% | viability, T/C (second compound 10 µM, first compound 10 µM): 64.5%
